Residues, ends and D or L forms follow the SMILES beside them.
Experiments:
[1] = tested on: HFF, ARPE-19 and macrophages; assay: Impedance measurement (xCELLigence) toxicity study; assay type: cell-based, human; details: ARPE-19, macrophages, 72 h impedance
Excerpt: The “xCELLigence” system (ACEA Biosciences Inc.) was used for a more detailed toxicity study. The principle is based on a measurement of the electrical resistance caused by adhesive cells on the bottom of a 96-well plate equipped with microelectrodes. Cell proliferation causes an increase in resistance due to the partial isolation of the electrodes, while events leading to altered cell morphology or cell detachment lead to reduced resistance (Diemert et al. “Impedance measurement for real time detection of neuronal cell death”, J Neurosci Methods, 203(1):69-77, 2012)). The experiments were performed with HFF, ARPE-19 and macrophages, the appropriate cell numbers were determined in a preliminary experiment without treatment with peptides.
On the first day 10 000 HFF or ARPE-19 or 20 000 macrophages per well were sown. […] Then a blank value was measured and the cells were added in corresponding numbers in 150 μl medium each, the final volume was 200 μl per well. The plate was placed in the “xCELLigence” and the impedance was measured at 37° C. and 5% CO2 over 24 h every 30 min. […] Afterwards, the resistance at the bottom of the 96-well plate was measured every 30 min for a further 72 h. The resistance of the tritone was measured with a positive control of 10% tritone. From the measured impedance values, the RTCA software calculated the so-called cell index according to the following formula: […]

[2] = tested on: clinical HCMV isolates; assay: Infection assays with clinical isolates on HFF; assay type: cell-based, Human Cytomegalovirus
Protocol: The antiviral activity of HD5 (1-9) (SEQ ID No. 1) in concentrations from 1.56 μM to 100 μM against infection with clinical HCMV isolates was investigated on HFF. In addition to the laboratory-adapted strain TB40/E-ΔUL16-eGFP, which served as reference strain, a breast milk-derived strain, an amniotic fluid-isolated strain and a multidrug-resistant viral isolate from leukocytes of a recipient after the third stem cell transplantation were used. The therapy-naïve strain from cell free milk whey (H1241-2016) was derived from a […] of a preterm infant 10 weeks postpartum during end of viral reactivation. The amnion fluid derived virus strain (H2497-2011) was isolated following termination of pregnancy based on severe fetal brain damage. The multidrug resistant CMV isolate (H815-2006) is already described (Gohring et al., “Dynamics of coexisting HCMV-UL97 and UL54 drug-resistance associated mutations in patients after haematopoietic cell transplantation”, J. Clin. Virol. 57(1):43-49, 2013). […] All viral isolates were primarily HFF-adapted and propagated in vitro with at least 10 passages to get TCID values of cell free viral supernatants of […].
Next, a peptide of the invention, i.e. HD5 (1-9) was tested on clinical HCMV isolates. 10 000 HFF were seeded into each well of a 96-well-plate containing 200 μl of medium. Cells were incubated overnight at 37° C. and 5% CO2. Next day medium was changed to medium without P/S. Cells were infected with different clinical HCMV isolates (MOI 0,2) and treated with peptide in concentrations from 1.56 μM to 100 μM in a volume of 100 μl. After 40 h of incubation cells were fixed with 2% PFA in PBS and permeabilised with 90% methanol in H2O. Afterwards an antibody staining for IE-antigens was performed and nuclei were stained with DAPI. Infection rate was analysed (IE+/DAPI+, normalized to medium control, n=1).
HCMV TB40/E is a lab-adapted strain that might differ from primary HCMV isolates in terms of cellular tropism, infectivity or cytopathic properties. […]

In the case of C[C@H](N)C(=O)N[C@H](C(=O)N[C@@H](CS)C(=O)N[C@@H](Cc1ccc(O)cc1)C(=O)N[C@@H](CS)C(=O)N[C@@H](CCCNC(=N)N)C(=O)N[C@H](C(=O)NCC(=O)N[C@@H](CCCNC(=N)N)C(=O)O)[C@@H](C)O)[C@@H](C)O [HD5 (1-9), ATCYCRTGR] (H-ATCYCRTGR-OH; N-terminus and C-terminus assumed), the “concentration up to which no cytotoxicity is shown” value [1] is reported as “up to 150 μM”, the “inhibition of HCMV infection” value ([2]; 100 μM in HFF, MOI 0.2 and 0.1) is reported as “inhibited HCMV infection efficiently” and the “concentration at which inhibition of infection with all clinical isolates starts” value ([2]; HFF, 40 h) is reported as ≥ 50 µM. For the same compound, the “inhibition of infection with primary isolates (amniotic fluid, breast milk, multiresistant leukocyte isolate)” value ([2]; HFF, MOI 0.2 and 0.1) was “sensitive towards inhibition”.
